{"source": "ChEMBL document CHEMBL4483862", "about": "“Open-source discovery of chemical leads for next-generation chemoprotective antimalarials” (2018)", "test_system": "Plasmodium berghei", "experiment": "Luciferase/luciferin-expressing antifolate-resistant parasites were used to infect a culture of HepG2 cells that were pre-incubated with compounds. Infected hepatocytes emit light due to the luciferase reaction. Assay results are presented as the percent inhibition of light emission compared to control. […]", "assay_type": "functional", "details": "sporozoite; for IC90: read-out: LUCIFERASE INFECTION ASSAY - IC90", "key": {"[1]": {"details": "read-out: LUCIFERASE INFECTION ASSAY - IC50"}}}
{"smiles": "Cc1cc(C(C)(C)C)cc(S(=O)(=O)Nc2ccc(C(=O)OC(C)C(=O)c3cc(C)n(-c4ccccc4)c3C)cc2)c1C", "note": "(stereo not given)", "values": [{"measurement": "IC50", "setting": "FFLUC_HILL_SLOPE 4.56, FFLUC_R_SQUARED 0.633, PBLUC_HILL_SLOPE 9.36, PBLUC_R_SQUARED 0.441, read-out: LUCIFERASE INFECTION ASSAY - IC50", "result": 8.93, "unit": "µM"}, {"measurement": "IC90", "result": "> 10", "unit": "µM"}]}
{"smiles": "COc1ccc(OC)c(NC(=O)c2cc(-c3cc(Cl)ccc3O)[nH]n2)c1", "values": [{"measurement": "IC50", "setting": "HEPG2TOX_HILL_SLOPE 2.05, HEPG2TOX_R_SQUARED 0.718, PBLUC_HILL_SLOPE 2.04, PBLUC_R_SQUARED 0.622, read-out: LUCIFERASE INFECTION ASSAY - IC50", "result": 4.02, "unit": "µM"}, {"measurement": "IC90", "result": "> 8.83", "unit": "µM"}]}
{"smiles": "Cc1cccc(N2CCN(C(=O)c3ccccc3SCC(=O)Nc3ccc(F)cc3)CC2)c1C", "values": [{"measurement": "IC50", "setting": "HEPG2TOX_HILL_SLOPE 6.74, HEPG2TOX_R_SQUARED 0.191, PBLUC_HILL_SLOPE 2.5, PBLUC_R_SQUARED 0.41, read-out: LUCIFERASE INFECTION ASSAY - IC50", "result": 5.48, "unit": "µM"}, {"measurement": "IC90", "result": "> 10", "unit": "µM"}]}
{"smiles": "CN(C)C(CNC(=O)c1cc(C2CC2)nn1-c1ccccc1)Cc1ccccc1", "note": "(stereo not given)", "values": [{"measurement": "IC50", "setting": "[1]", "result": "> 10", "unit": "µM"}, {"measurement": "IC90", "result": "> 10", "unit": "µM"}]}
{"smiles": "CC(C)n1c(Sc2ncc([N+](=O)[O-])s2)nc2cc(C(F)(F)F)ccc21", "values": [{"measurement": "IC50", "setting": "FFLUC_HILL_SLOPE 0.818, FFLUC_R_SQUARED 0.623, HEPG2TOX_HILL_SLOPE 9.88, HEPG2TOX_R_SQUARED 0.799, PBLUC_HILL_SLOPE 37.4, PBLUC_R_SQUARED 0.0575, read-out: LUCIFERASE INFECTION ASSAY - IC50", "result": 5.8, "unit": "µM"}, {"measurement": "IC90", "result": 6.15, "unit": "µM"}]}
{"smiles": "CC(C)Oc1ccc(Nc2nccc3[nH]c(-c4ccccc4)cc23)cc1", "values": [{"measurement": "IC50", "setting": "HEPG2TOX_HILL_SLOPE 24.7, HEPG2TOX_R_SQUARED 0.868, PBLUC_HILL_SLOPE 10.9, PBLUC_R_SQUARED 0.493, read-out: LUCIFERASE INFECTION ASSAY - IC50", "result": 3.42, "unit": "µM"}, {"measurement": "IC90", "result": 4.19, "unit": "µM"}]}
{"smiles": "CC1CC(NC(=S)NCc2csc3ccccc23)CC(C)(C)C1", "note": "(stereo not given)", "values": [{"measurement": "IC50", "setting": "PBLUC_HILL_SLOPE 0.667, PBLUC_R_SQUARED 0.384, read-out: LUCIFERASE INFECTION ASSAY - IC50", "result": "> 9.52", "unit": "µM"}, {"measurement": "IC90", "result": "> 9.52", "unit": "µM"}]}
{"smiles": "COc1ccc(-c2cc3ncnc(NCc4ccc(N5CCN(C)CC5)nc4)c3s2)cc1", "values": [{"measurement": "IC50", "setting": "HEPG2TOX_HILL_SLOPE 1.93, HEPG2TOX_R_SQUARED 0.825, PBLUC_HILL_SLOPE 2.26, PBLUC_R_SQUARED 0.8, read-out: LUCIFERASE INFECTION ASSAY - IC50", "result": 1.81, "unit": "µM"}, {"measurement": "IC90", "result": 4.79, "unit": "µM"}]}
{"smiles": "CN(Cc1ccccc1)S(=O)(=O)c1ccc(Cl)c(C(=O)Nc2nnc(C(F)(F)F)[nH]2)c1", "values": [{"measurement": "IC50", "setting": "PBLUC_HILL_SLOPE 3.05, PBLUC_R_SQUARED 0.465, read-out: LUCIFERASE INFECTION ASSAY - IC50", "result": 3.73, "unit": "µM"}, {"measurement": "IC90", "result": 7.66, "unit": "µM"}]}
{"smiles": "CC(C)(C)c1ccc(C(O)c2nc(C(=O)NC3CC3)cs2)cc1", "note": "(stereo not given)", "values": [{"measurement": "IC50", "setting": "HEPG2TOX_HILL_SLOPE 1.09, HEPG2TOX_R_SQUARED 0.894, PBLUC_HILL_SLOPE 10.5, PBLUC_R_SQUARED 0.569, read-out: LUCIFERASE INFECTION ASSAY - IC50", "result": 1.05, "unit": "µM"}, {"measurement": "IC90", "result": 1.29, "unit": "µM"}]}
{"smiles": "COc1ccc(N2CCN(CCCNc3ncnc4cc(Cl)ccc34)CC2)cc1", "values": [{"measurement": "IC50", "setting": "HEPG2TOX_HILL_SLOPE 6.44, HEPG2TOX_R_SQUARED 0.109, PBLUC_HILL_SLOPE 114, 20.9, PBLUC_R_SQUARED 0.138, 0.588, read-out: LUCIFERASE INFECTION ASSAY - IC50", "result": 3.33, "unit": "µM"}, {"measurement": "IC90", "result": 3.54, "unit": "µM"}]}
{"smiles": "Cc1cc(NC(=O)COc2ccc(C(C)C)cc2)no1", "values": [{"measurement": "IC50", "setting": "[1]", "result": "> 12", "unit": "µM"}, {"measurement": "IC90", "result": "> 12", "unit": "µM"}]}
{"smiles": "C#Cc1cccc(NC(=O)c2[nH]c(C)c(C(=O)OCC)c2C)c1", "values": [{"measurement": "IC50", "setting": "[1]", "result": "> 10", "unit": "µM"}, {"measurement": "IC90", "result": "> 10", "unit": "µM"}]}
{"smiles": "O=C(/C=C/c1cccc(NC(=O)c2ccccc2Cl)c1)c1ccc2c(c1)-c1ccccc1C2", "values": [{"measurement": "IC50", "setting": "[1]", "result": "> 10", "unit": "µM"}, {"measurement": "IC90", "result": "> 10", "unit": "µM"}]}
{"smiles": "CCOc1ccc(-c2nc(CSc3nc(C)nc4sc5c(c34)CCCC5)cs2)cc1OC", "values": [{"measurement": "IC50", "setting": "FFLUC_HILL_SLOPE 22.7, FFLUC_R_SQUARED 0.174, read-out: LUCIFERASE INFECTION ASSAY - IC50", "result": "> 10", "unit": "µM"}, {"measurement": "IC90", "result": "> 10", "unit": "µM"}]}
{"smiles": "CCOC(=O)c1ccc(N2C(=O)C=CC2=O)cc1", "values": [{"measurement": "IC50", "setting": "FFLUC_HILL_SLOPE 9.09, FFLUC_R_SQUARED 0.613, PBLUC_HILL_SLOPE 2.11, PBLUC_R_SQUARED 0.463, read-out: LUCIFERASE INFECTION ASSAY - IC50", "result": 7.08, "unit": "µM"}, {"measurement": "IC90", "result": "> 13.5", "unit": "µM"}]}
{"smiles": "Cc1ccc(Nc2ccc(S(=O)(=O)NC3=NCCCCC3)cc2[N+](=O)[O-])cc1", "values": [{"measurement": "IC50", "setting": "HEPG2TOX_HILL_SLOPE 0.294, HEPG2TOX_R_SQUARED 0.717, PBLUC_HILL_SLOPE 0.103, PBLUC_R_SQUARED 0.0204, read-out: LUCIFERASE INFECTION ASSAY - IC50", "result": "> 10", "unit": "µM"}, {"measurement": "IC90", "result": "> 10", "unit": "µM"}]}
{"smiles": "CCOc1cc2c(cc1CN(Cc1nc(=O)c3cc(-c4ccccc4)sc3[nH]1)Cc1nc(=O)c3cc(-c4ccccc4)sc3[nH]1)OC(C)C2", "note": "(stereo not given)", "values": [{"measurement": "IC50", "setting": "[1]", "result": "> 10", "unit": "µM"}, {"measurement": "IC90", "result": "> 10", "unit": "µM"}]}
{"smiles": "O=C(NC1CC1)c1ccc(CN(C2CC2)S(=O)(=O)/C=C/c2ccccc2)cc1", "values": [{"measurement": "IC50", "setting": "PBLUC_HILL_SLOPE 1.61, PBLUC_R_SQUARED 0.829, read-out: LUCIFERASE INFECTION ASSAY - IC50", "result": 1.03, "unit": "µM"}, {"measurement": "IC90", "result": 4.03, "unit": "µM"}]}
{"smiles": "Oc1cccc(-c2cnc3ccc(-c4cccc(C(F)(F)F)c4)nn23)c1", "values": [{"measurement": "IC50", "setting": "PBLUC_HILL_SLOPE 3.46, PBLUC_R_SQUARED 0.251, read-out: LUCIFERASE INFECTION ASSAY - IC50", "result": 6.43, "unit": "µM"}, {"measurement": "IC90", "result": "> 10", "unit": "µM"}]}
